Results from patent US12673944B2, “Compounds having inhibitory activity against glucosylceramide synthase or pharmaceutically acceptable salt thereof, processes for preparing the same, and pharmaceutical compositions comprising the same” (YUHAN CORPORATION, priority 2019, dated 2026).
pIC50: −log10 of the molar value. Where two headings read alike, the source gives them in different places.

Experiments:
[1] = target: T1, glucosylceramide synthase (GCS) (Homo sapiens, UniProt Q16739); assay: GCS enzyme inhibition assay (A549 cell lysate, NBD C6-ceramide, HPLC fluorescence); assay type: biochemical; conditions: inhibitory activity against GCS, 37° C., 90 minutes
T1 construct: The obtained supernatant was used; host or cells: A549 cells (lysate supernatant after sonication)
T1 sequence (Q16739 1-394): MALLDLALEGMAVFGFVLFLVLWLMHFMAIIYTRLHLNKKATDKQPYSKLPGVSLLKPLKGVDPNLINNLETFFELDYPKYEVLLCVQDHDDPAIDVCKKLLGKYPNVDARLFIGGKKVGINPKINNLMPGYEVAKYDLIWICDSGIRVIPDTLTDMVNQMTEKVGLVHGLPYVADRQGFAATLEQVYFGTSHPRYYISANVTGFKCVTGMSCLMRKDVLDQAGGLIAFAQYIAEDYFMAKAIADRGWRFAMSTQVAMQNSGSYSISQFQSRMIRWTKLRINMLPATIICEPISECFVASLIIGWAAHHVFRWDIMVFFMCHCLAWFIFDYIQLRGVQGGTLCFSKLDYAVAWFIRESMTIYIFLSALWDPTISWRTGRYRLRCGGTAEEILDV
Procedure: Ibiglustat, known as a GCS inhibitor, was used as a control.
After the cells attached to the culture dish were washed with phosphate buffered saline (PBS), the cells were scraped off with a cell scraper and then centrifuged (4000 rpm, 3 min, 4° C.) to collect the cells in a 50 ml tube. The cell pellets were suspended in a lysis buffer (50 mM HEPES, pH 7.3, containing 1× the protease/phosphatase inhibitor cocktail), lysed by sonication, and then the lysate was centrifuged (13000 rpm, 10 min, 4° C.). The obtained supernatant was used for the quantitative analysis of proteins. The amount of proteins was measured using the BCA protein assay kit, using bovine serum albumin as a standard.
Enzymatic reactions were initiated by sequentially adding the following reaction materials to a 96 deep-well plate. Thereafter, the enzymatic reactions were performed at 37° C. for 90 minutes.
The enzymatic reactions were stopped by adding 100 μl of chloroform/methanol (2:1, v/v). After vortexing for 15 seconds, each mixture was centrifuged (4000 rpm, 10 min, 18° C.). The lower layer (50 μl) was transferred to a new 96 deep-well plate and dried with a reduced concentrator.
Data analysis was performed by the following equations. % Area(Sample)=Area(GlcCer)/[Area(Cer)+Area(GlcCer)]×100 % GCS activity=[Area(Sample)−Area(ibiglustat)]/[Area(DMSO)−Area(ibiglustat)]×100

[2] = tested on: GM1 production in Jurkat cells; assay: cells; assay type: cell-based

Row | Structure (SMILES) | pIC50 [1] | pIC50 ([2]; Homo sapiens, Jurkat, 72 h) | pIC50 ([2]; read-out: IC50)
1 | O=C(NC1CCOc2cc(C3=CCCO3)ccc21)O[C@@H]1CN2CCC1CC2 (stereo partly drawn) [Example 38, (S)-quinuclidin-3-yl (7-(2,3-dihydrofuran-5-yl)chroman-4-yl)carbamate] | 8.52 | 7.84 | –
2 | CC1(C)COc2cc(-c3ccc(C#N)c(F)c3)ccc2C1NC(=O)O[C@@H]1CN2CCC1CC2 (stereo partly drawn) [Example 291, (S)-quinuclidin-3-yl (7-(4-cyano-3-fluorophenyl)-3,3-dimethylchroman-4-yl)carbamate] | 8.99 | 8.05 | –
3 | Cc1ccc(-c2ccc3c(c2)OCC(C)(C)C3NC(=O)O[C@@H]2CN3CCC2CC3)c2cccnc12 (stereo partly drawn) [Example 113, (S)-quinuclidin-3-yl (3,3-dimethyl-7-(8-methylquinolin-5-yl)chroman-4-yl)carbamate] | 8.53 | 7.89 | –
4 | O=C(NC1CCOc2ccc(-c3cccc(C(F)(F)F)c3)cc21)O[C@@H]1CN2CCC1CC2 (stereo partly drawn) [Example 92, (S)-quinuclidin-3-yl (6-(3-(trifluoromethyl)phenyl)chroman-4-yl)carbamate] | 7.53 | 6.31 | –
5 | COc1ccc(-c2ccc3c(c2)OCCC3NC(=O)O[C@@H]2CN3CCC2CC3)cc1 (stereo partly drawn) [Example 19, (S)-quinuclidin-3-yl (7-(4-methoxyphenyl)chroman-4-yl)carbamate] | 8.08 | 7.52 | –
6 | Cc1ccc(-c2ccc3c(c2)OCC(C)(C)C3NC(=O)O[C@@H]2CN3CCC2CC3)cc1Cl (stereo partly drawn) [Example 226, (S)-quinuclidin-3-yl (7-(3-chloro-4-methylphenyl)-3,3-dimethylchroman-4-yl)carbamate] | 9.15 | 8.89 | –
7 | O=C(NC1CCOc2cc(-c3c[nH]c4ccccc34)ccc21)O[C@@H]1CN2CCC1CC2 (stereo partly drawn) [Example 46, (S)-quinuclidin-3-yl (7-(1H-indol-3-yl)chroman-4-yl)carbamate] | 8.39 | 7.69 | –
8 | CSc1cccc(-c2ccc3c(c2)C(NC(=O)O[C@@H]2CN4CCC2CC4)CCO3)c1 (stereo partly drawn) [Example 98, (S)-quinuclidin-3-yl (6-(3-(methylthio)phenyl)chroman-4-yl)carbamate] | 7.83 | 6.28 | –
9 | COCOc1ccccc1-c1ccc2c(c1)OCC(C)(C)C2NC(=O)O[C@@H]1CN2CCC1CC2 (stereo partly drawn) [Example 106, (S)-quinuclidin-3-yl (7-(2-(methoxymethoxy)phenyl)-3,3-dimethylchroman-4-yl)carbamate] | 8.93 | 9.66 | –
10 | CCCCc1ccc(-c2ccc3c(c2)OCC(C)(C)C3NC(=O)O[C@@H]2CN3CCC2CC3)cc1 (stereo partly drawn) [Example 256, (S)-quinuclidin-3-yl (7-(4-butylphenyl)-3,3-dimethylchroman-4-yl)carbamate] | 9.41 | 9.70 | –
11 | O=C(NC1CCOc2cc(-c3cc(Cl)ccc3Cl)ccc21)O[C@@H]1CN2CCC1CC2 (stereo partly drawn) [Example 27, (S)-quinuclidin-3-yl (7-(2,5-dichlorophenyl)chroman-4-yl)carbamate] | 9.12 | 9.27 | –
12 | CC1(C)COc2cc(-c3ccc(-c4ccccc4)cc3)ccc2C1NC(=O)O[C@@H]1CN2CCC1CC2 (stereo partly drawn) [Example 242, (S)-quinuclidin-3-yl (7-([1,1′-biphenyl]-4-yl)-3,3-dimethylchroman-4-yl)carbamate] | 9.28 | 8.42 | –
13 | Cc1ccc(-c2ccc3c(c2)C(NC(=O)O[C@@H]2CN4CCC2CC4)CCO3)cc1 (stereo partly drawn) [Example 99, (S)-quinuclidin-3-yl (6-(p-tolyl)chroman-4-yl)carbamate] | 7.72 | 6.49 | –
14 | COc1ccc2cc(-c3ccc4c(c3)OCC(C)(C)C4NC(=O)O[C@@H]3CN4CCC3CC4)ccc2c1 (stereo partly drawn) [Example 145, (S)-quinuclidin-3-yl (7-(6-methoxynaphthalen-2-yl)-3,3-dimethylchroman-4-yl)carbamate] | 9.16 | 10.10 | –
15 | O=C(NC1CCSc2cc(-c3cccc(F)c3)ccc21)O[C@@H]1CN2CCC1CC2 (stereo partly drawn) [Example 317, (S)-quinuclidin-3-yl (7-(3-fluorophenyl)thiochroman-4-yl)carbamate] | 8.53 | 7.86 | –
16 | O=C(NC1CCOc2cc(-c3cccc(OC(F)(F)F)c3)ccc21)O[C@@H]1CN2CCC1CC2 (stereo partly drawn) [Example 4, (S)-quinuclidin-3-yl (7-(3-(trifluoromethoxy)phenyl)chroman-4-yl)carbamate] | 9.15 | 8.96 | –

Row | Structure (SMILES) | pIC50 [1] | pIC50 ([2]; Homo sapiens, Jurkat, 72 h) | pIC50 ([2]; read-out: IC50)
17 | CC1(C)COc2cc(-c3cc(F)ccc3Cl)ccc2C1NC(=O)O[C@@H]1CN2CCC1CC2 (stereo partly drawn) [Example 232, (S)-quinuclidin-3-yl (7-(2-chloro-5-fluorophenyl)-3,3-dimethylchroman-4-yl)carbamate] | 9.39 | 9.52 | –
18 | CC1(C)COc2cc(-c3ccc(C#N)cc3)ccc2C1NC(=O)O[C@@H]1CN2CCC1CC2 (stereo partly drawn) [Example 247, (S)-quinuclidin-3-yl (7-(4-cyanophenyl)-3,3-dimethylchroman-4-yl)carbamate] | 9.24 | 7.97 | –
19 | COCCOc1ccc(-c2ccc3c(c2)OCC(C)(C)C3NC(=O)O[C@@H]2CN3CCC2CC3)cc1 (stereo partly drawn) [Example 111, (S)-quinuclidin-3-yl (7-(4-(2-methoxyethoxy)phenyl)-3,3-dimethylchroman-4-yl)carbamate] | 8.71 | 8.90 | –
20 | CCOc1ccc(-c2ccc3c(c2)OCCC3(C)NC(=O)O[C@@H]2CN3CCC2CC3)cc1 (stereo partly drawn) [Example 302, (S)-quinuclidin-3-yl (7-(4-ethoxyphenyl)-4-methylchroman-4-yl)carbamate] | 9.10 | 8.59 | –
21 | Cc1cc(-c2ccc3c(c2)OCCC3NC(=O)O[C@@H]2CN3CCC2CC3)ccc1N1CCOCC1 (stereo partly drawn) [Example 75, (S)-quinuclidin-3-yl (7-(3-methyl-4-morpholinophenyl)chroman-4-yl)carbamate] | 8.61 | 7.63 | –
22 | CCOc1cccc(-c2ccc3c(c2)OCC(C)(C)C3NC(=O)O[C@@H]2CN3CCC2CC3)c1 (stereo partly drawn) [Example 158, (S)-quinuclidin-3-yl (7-(3-ethoxyphenyl)-3,3-dimethylchroman-4-yl)carbamate] | 9.38 | 8.82 | –
23 | O=C(NC1CCOc2cc(-c3cc4ccccc4o3)ccc21)O[C@@H]1CN2CCC1CC2 (stereo partly drawn) [Example 44, (S)-quinuclidin-3-yl (7-(benzofuran-2-yl)chroman-4-yl)carbamate] | 8.04 | 7.81 | –
24 | COc1ncccc1-c1ccc2c(c1)OCC(C)(C)C2NC(=O)O[C@@H]1CN2CCC1CC2 (stereo partly drawn) [Example 245, (S)-quinuclidin-3-yl (7-(2-methoxypyridin-3-yl)-3,3-dimethylchroman-4-yl)carbamate] | 9.02 | 8.33 | –
25 | Cc1cc(C)c(Cl)c(-c2ccc3c(c2)OCC(C)(C)C3NC(=O)O[C@@H]2CN3CCC2CC3)c1 (stereo partly drawn) [Example 285, (S)-quinuclidin-3-yl (7-(2-chloro-3,5-dimethylphenyl)-3,3-dimethylchroman-4-yl)carbamate] | 8.71 | 8.01 | –
26 | CCOc1cc(-c2ccc3c(c2)OCC(C)(C)C3NC(=O)O[C@@H]2CN3CCC2CC3)c(Cl)cc1Cl (stereo partly drawn) [Example 134, (S)-quinuclidin-3-yl (7-(2,4-dichloro-5-ethoxyphenyl)-3,3-dimethylchroman-4-yl)carbamate] | 8.55 | 7.90 | –
27 | CC1(C)COc2cc(-c3cccc(Cl)c3)ccc2C1NC(=O)O[C@@H]1CN2CCC1CC2 (stereo partly drawn) [Example 103, (S)-quinuclidin-3-yl (7-(3-chlorophenyl)-3,3-dimethylchroman-4-yl)carbamate] | 9.00 | 8.84 | –
28 | CC1(C)COc2cc(-c3ccc(F)c(Cl)c3)ccc2C1NC(=O)O[C@@H]1CN2CCC1CC2 (stereo partly drawn) [Example 236, (S)-quinuclidin-3-yl (7-(3-chloro-4-fluorophenyl)-3,3-dimethylchroman-4-yl)carbamate] | 9.12 | 8.44 | –
29 | O=C(NC1CCOc2cc(-c3ccc(OCC4CC4)nc3)ccc21)O[C@@H]1CN2CCC1CC2 (stereo partly drawn) [Example 81, (S)-quinuclidin-3-yl (7-(6-(cyclopropylmethoxy)pyridin-3-yl)chroman-4-yl)carbamate] | 9.03 | 7.83 | –
30 | CC1(C)CC(NC(=O)O[C@@H]2CN3CCC2CC3)c2cc(-c3cccc(F)c3)ccc2O1 (stereo partly drawn) [Example 294, (S)-quinuclidin-3-yl (6-(3-fluorophenyl)-2,2-dimethylchroman-4-yl)carbamate] | 6.84 | – | –
31 | CC1(C)COc2cc(-c3ccc(N4CCOCC4)c(F)c3)ccc2C1NC(=O)O[C@@H]1CN2CCC1CC2 (stereo partly drawn) [Example 204, (S)-quinuclidin-3-yl (7-(3-fluoro-4-morpholinophenyl)-3,3-dimethylchroman-4-yl)carbamate] | – | – | 9.51
